The values below come from ChEMBL document CHEMBL1142226, “Impact of physicochemical and structural properties on the pharmacokinetics of a series of alpha1L-adrenoceptor antagonists” (Drug Metab Dispos, 2007).

Series [1] is described as follows: Metabolic stability in Sprague-Dawley rat liver microsomes assessed as half life. The class given is ADME, Microsome. Background: Liver microsomes are vesicles of endoplasmic reticulum, rich in cytochrome P450 enzymes.
Series [2] in a line: Metabolic stability in Sprague-Dawley rat assessed as hepatic extraction ratio. The class given is ADME, tissue-based. The conditions noted are these: liver.
A short description of series [3]: Metabolic stability in Sprague-Dawley rat bile assessed as drug remaining. The class given is ADME.
Series [4] can be described thus: Fraction unbound in Beagle dog liver microsomes at 1 uM. The class given is ADME, Canis lupus familiaris, Microsome.
Series [5] can be described thus: Metabolic stability in human liver microsomes assessed as half life at 1 uM. The class given is ADME, Microsome.
Series [6] is described as follows: Oral absorption in Beagle dog at 2 mg/kg, po. The note with it: in vivo, read-out: Fabs. It is filed as ADME, organism-based, Canis lupus familiaris. On the set-up: dose 2 mg/kg, route oral.
The subject of a further series is Liver. The series is described as follows: Unbound intrinsic clearance in Beagle dog liver microsomes at 1 uM. The class given is ADME, Canis lupus familiaris, Microsome.
Series [7] can be described thus: Volume of distribution in Beagle dog at 0.5 mg/kg, iv. The note with it: in vivo. More on the design: dose 0.5 mg/kg, route intravenous. It is filed as ADME, organism-based, Canis lupus familiaris.
Series [8] in a line: Metabolic stability in Beagle dog liver microsomes assessed as half life at 1 uM. It is filed as ADME, Canis lupus familiaris, Microsome.
The test system of a further series is Liver microsomes. The series is described as follows: Unbound intrinsic clearance in human liver microsomes at 1 uM. The class given is ADME, Microsome.
The nature of series [9]: Plasma clearance in Beagle dog at 0.5 mg/kg, iv. It is filed as ADME, organism-based, Canis lupus familiaris. More on the design: dose 0.5 mg/kg, route intravenous.
The nature of series [10]: Oral bioavailability in Beagle dog at 2 mg/kg. It is filed as ADME, organism-based, Canis lupus familiaris. The conditions noted are these: in vivo.
The test system of series [11] is Canis familiaris. The series is described as follows: Unbound plasma clearance in Beagle dog at 0.5 mg/kg, iv. The note with it: in vivo. The class given is ADME, organism-based, Canis lupus familiaris. On the set-up: dose 0.5 mg/kg, route intravenous.
The subject of series [12] is Canis familiaris. The series is described as follows: Unbound volume of distribution in Beagle dog at 0.5 mg/kg, iv. It is filed as ADME, organism-based, Canis lupus familiaris. More on the design: dose 0.5 mg/kg, route intravenous. The note with it: in vivo.
Series [13] in a line: Protein binding in Beagle dog plasma at 1 ug/ml. The note with it: read-out: PPB (converted). The class given is ADME, cell-free, Canis lupus familiaris.
Series [14] can be described thus: Elimination half life in Beagle dog at 0.5 mg/kg, iv. The class given is ADME, organism-based, Canis lupus familiaris. More on the design: dose 0.5 mg/kg, route intravenous. The note with it: in vivo.
Series [15] can be described thus: Dissociation constant, pKa of the compound. It is filed as physicochemical.
Series [16] is described as follows: Lipophilicity, log D in 0.1M potassium phosphate buffer at pH 7.4. The class given is physicochemical.
Series [17] in a line: Fraction unbound in human liver microsomes at 1 uM. It is filed as ADME, Microsome.
Series [18] can be described thus: Oral absorption in Beagle dog at 0.5 mg/kg, po. The class given is ADME, organism-based, Canis lupus familiaris. On the set-up: dose 0.5 mg/kg, route oral. The note with it: in vivo, read-out: Fabs.
A short description of series [19]: Oral bioavailability in Beagle dog at 0.5 mg/kg. It is filed as ADME, organism-based, Canis lupus familiaris. The conditions noted are these: in vivo.

Broadly, the half-life is the time in which the quantity being followed falls by half. For the compound `COc1cc2nc(N3CCCN(C(=O)N4CC(O)C(O)C4)CC3)nc(N3CC4C(CC(=O)OC(C)(C)C)C4C3)c2cc1OC` (stereo not given), the half-life in [1] is above 120 min. Further, the hepatic extraction ratio in series [2] came to 0.75. Further, the Stability in series [3] was 90%.
Usually clearance stands for the rate of elimination divided by the concentration. Read a low clearance as inefficient removal. A word on the bioavailability: it is dose-corrected exposure relative to a reference, in per cent. Low readings indicate little systemic uptake, high ones much systemic uptake. One may read the pKa as the pH at which an ionisable group is half protonated. As usually defined, the logD is lipophilicity at a set pH, counting ionised and neutral species. Read a low logD as a more hydrophilic compound. As to `COc1cc2nc(N3CCCN(C(=O)N4CCOCC4)CC3)nc(N)c2c(-c2ccccn2)c1OC`, the fraction unbound at 1 µM in [4] stood at 0.939; in series [17], 1. Also, the half-life at 1 µM was 9 min in [5] and 46 min in series [8]. The Fa in [6] amounted to 100%. The CL in the series with Liver stood at 41 mL/min/kg; in the series with Liver microsomes it was 34 mL/min/kg; in the series with Canis familiaris [11], 60 mL/min/kg. The Vd in series [7] is 2.2 L/kg; with Canis familiaris [12], 4 L/kg. For the same compound, the clearance in series [9] came to 20 mL/min/kg. The compound also gave a bioavailability in series [10] of 63%. For the same compound, the fraction unbound at 1 ug/ml in series [13] was 0.56. The half-life in series [14] is 96 min. The compound also returned a pKa in series [15] of 6.9. Besides, in series [16], the logD came out at 1.5.
Regarding `COc1cc2nc(N3CCCN(C(=O)N4CCOCC4)CC3)cc(N)c2c(-c2ccccc2)c1OC`, the fraction unbound at 1 µM in series [4] is 0.59; in series [17], 0.414. Also, in [18], the Fa was 29%. For the same compound, the half-life at 1 µM was 9 min in series [5] and 25 min in series [8]. For the same compound, the CL turned out to be 122 mL/min/kg in the series with Liver, 82 mL/min/kg in the series with Liver microsomes and 88 mL/min/kg in the series on Canis familiaris [11]. The Vd in series [7] amounted to 2.8 L/kg; in the series on Canis familiaris [12], 23 L/kg. The clearance in series [9] stood at 8.8 mL/min/kg. For the same compound, the fraction unbound at 1 ug/ml in series [13] is 0.12. This compound showed a half-life in [14] of 216 min. Besides, in series [15], the pKa was found to be 8.5. In addition, the logD in series [16] is 1.8. This compound displayed a bioavailability in series [19] of 24%.
Take `COc1cc2nc(N3CCCN(C(=O)N4CCOCC4)CC3)cc(N)c2c(-c2ncco2)c1OC`: the fraction unbound at 1 µM in series [4] came out at 0.962; in series [17], 0.745. The Fa in series [18] stood at 86%. Moreover, the half-life at 1 µM in [5] was 19 min; in series [8], 80 min. In addition, the values for the Vd (in series [7]; with Canis familiaris [12]) were 1 L/kg and 4.5 L/kg, respectively. The compound further showed a clearance in series [9] of 5.9 mL/min/kg. The fraction unbound at 1 ug/ml in [13] was 0.22. Moreover, the half-life in [14] was 114 min. In addition, the pKa in [15] worked out at 7.5. The logD in series [16] was 1.1. For the same compound, the bioavailability in series [19] worked out at 76%.
For `COc1cc2nc(N3CCCN(C(=O)N4CC(O)C(O)C4)CC3)nc(Nc3ccccn3)c2cc1OC` (stereo not given), the half-life in series [1] is above 120 min. Further, in series [2], the hepatic extraction ratio was 0.7. The Stability in series [3] came to 100%.
Regarding `COc1cc2nc(N3CCc4ncccc4C3)nc(N)c2c(-c2ncccn2)c1OC`, the fraction unbound at 1 µM in series [4] worked out at 1; in [17], 0.823. In addition, the Fa in series [18] stood at 100%. Also, the half-life at 1 µM in [5] stood at 31 min; in series [8], 36 min. Besides, the CL is 50 mL/min/kg in the series with Liver, 12 mL/min/kg with Liver microsomes and 450 mL/min/kg in the series with Canis familiaris [11]. Moreover, the values for the Vd (in series [7]; with Canis familiaris [12]) were 5.1 L/kg and 11 L/kg, respectively. In [9], this compound came in with a clearance of 40 mL/min/kg. For the same compound, the fraction unbound at 1 ug/ml in series [13] is 0.45. The half-life in series [14] was 90 min. Besides, the pKa in [15] is 6.5. Moreover, the logD in [16] amounted to 2.1. In addition, the bioavailability in series [19] is 28%.
In the case of `COc1cc2c(cc1OC)CN(c1cc(N3CCCN(C(=O)N4CC(O)C(O)C4)CC3)nc3cc(OC)c(OC)cc13)CC2` (stereo not given), in series [1], the half-life was above 120 min. Besides, in series [2], the hepatic extraction ratio turned out to be 0.8. Moreover, the Stability in series [3] is recorded as 90%.
